The values that follow come from PubChem BioAssay (NCI).

Structures are written as SMILES. Values joined by “and” are separate entries in the source; they are usually repeats but may differ in a detail not shown here. Identical values can stand only once.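 Five concentrations, 48 hours, 96-well plates. Here, GI50 denotes the concentration required for 50% inhibition of growth. TGI: concentration producing complete growth inhibition.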

Among the test systems are DMS 273 small cell lung; EKVX NSCLC; HCC-2998 colon; HOP-92 NSCLC; KM20L2 colon; LOX IMVI melanoma; NCI-H460 lung; SK-MEL-2 melanoma; SNB-75 CNS; MCF7 breast.
Experiment in all cases: inhibition of tumour cell growth, NCI panel, 48 h

For `CCOc1cccc2sc(N)nc12`, the TGI in the experiment with DMS 273 small cell lung, in the experiment with EKVX NSCLC, in the experiment with HCC-2998 colon, in the experiment with HOP-92 NSCLC, in the experiment with KM20L2 colon and with LOX IMVI melanoma was above 100 µM each time. For the same compound, the TGI in the experiment on NCI-H460 lung, with SK-MEL-2 melanoma and with SNB-75 CNS was above 100 µM in each case.

In the case of `COC(=O)CCC(=O)Nc1cccc(C(F)(F)F)c1`, the TGI in the experiment on DMS 273 small cell lung, in the experiment on EKVX NSCLC, in the experiment with HCC-2998 colon, in the experiment on HOP-92 NSCLC, in the experiment with KM20L2 colon and in the experiment on LOX IMVI melanoma was above 100 µM throughout. In addition, the TGI in the experiment on NCI-H460 lung, in the experiment with SK-MEL-2 melanoma and in the experiment with SNB-75 CNS was above 100 µM throughout.

As for `CC1OC(OC23C(=O)CC(C)(O)CC2(O)C=CC2=C3C(=O)c3ccc(C4CC(OC5CCC(OC6CC(O)C(O)C(C)O6)C(C)O5)C(O)C(C)O4)c(O)c3C2=O)CCC1O` (stereo not drawn), the GI50 in the experiment on DMS 273 small cell lung is 20.5 µM and 3.18 µM; with HOP-92 NSCLC, 15.2 µM and 4.81 µM; with LOX IMVI melanoma, 13.1 µM and 6.26 µM. The TGI in the experiment on DMS 273 small cell lung was 36.3 µM and 10 µM; in the experiment with EKVX NSCLC, 32.7 µM and 31.7 µM; in the experiment on HCC-2998 colon, 31.1 µM and 27.3 µM; in the experiment with HOP-92 NSCLC, 28.7 µM and 14.8 µM; with KM20L2 colon, 36.3 µM and 34.5 µM; in the experiment on LOX IMVI melanoma, 27.5 µM and 19.7 µM. The TGI in the experiment on NCI-H460 lung is 38 µM and 34.3 µM; with SK-MEL-2 melanoma, 31.2 µM and 30.5 µM; in the experiment on SNB-75 CNS it was 32.5 µM and 29.9 µM.

`COc1cccc(-c2cc(=O)c3cc(C)c(C)c(C(=O)O)c3o2)c1`: the TGI with DMS 273 small cell lung, in the experiment on EKVX NSCLC, in the experiment on HCC-2998 colon, in the experiment on HOP-92 NSCLC, in the experiment with KM20L2 colon and in the experiment with LOX IMVI melanoma was above 100 µM each time. Moreover, the TGI in the experiment on NCI-H460 lung is above 100 µM; with SK-MEL-2 melanoma it was above 100 µM; with SNB-75 CNS, 92.7 µM.

`COC(=O)c1ccc(CS(=O)(=O)c2ccccc2)cc1`: the TGI in the experiment on DMS 273 small cell lung, in the experiment with EKVX NSCLC, in the experiment on HCC-2998 colon, in the experiment with HOP-92 NSCLC, in the experiment with KM20L2 colon and with LOX IMVI melanoma was above 100 µM each time. In addition, the TGI with NCI-H460 lung, in the experiment on SK-MEL-2 melanoma and with SNB-75 CNS was above 100 µM each time.

In the case of `O=c1/c(=C/c2ccccc2O)sc2nc3ccccc3n12`, the TGI in the experiment with DMS 273 small cell lung was above 100 µM; in the experiment with EKVX NSCLC it was 82 µM; in the experiment on HCC-2998 colon, above 100 µM; in the experiment on HOP-92 NSCLC it was above 100 µM; with KM20L2 colon, above 100 µM; with LOX IMVI melanoma, 98.3 µM. Moreover, the TGI with NCI-H460 lung, in the experiment on SK-MEL-2 melanoma and with SNB-75 CNS was above 100 µM each time.

With `CS(=O)(=O)OCCCCOS(C)(=O)=O`, the TGI was 245 µM in the experiment with DMS 273 small cell lung; above 1000 µM with EKVX NSCLC; 201 µM and > 1000 µM in the experiment on HCC-2998 colon; 250 µM and > 948 µM in the experiment with HOP-92 NSCLC; above 235 µM in the experiment on KM20L2 colon; 248 µM and > 1000 µM in the experiment on LOX IMVI melanoma. In addition, the TGI was 250 µM and > 1000 µM with MCF7 breast; 242 µM and > 1000 µM in the experiment on NCI-H460 lung; 250 µM and > 1000 µM with SK-MEL-2 melanoma; 221 µM and > 1000 µM in the experiment on SNB-75 CNS. Besides, the GI50 in the experiment with EKVX NSCLC is above 1000 µM; in the experiment on HCC-2998 colon, above 1000 µM; with HOP-92 NSCLC, 570 µM; with LOX IMVI melanoma, 5.96 µM; with MCF7 breast, 534 µM; in the experiment on NCI-H460 lung, 223 µM. Further, the GI50 with SK-MEL-2 melanoma is above 1000 µM; with SNB-75 CNS it was 431 µM.

In the case of `CCCCCCCCCCCCCCCCSS(C)(=O)=O`, the TGI was 42.7 µM in the experiment with DMS 273 small cell lung; above 100 µM with EKVX NSCLC; above 72.5 µM with HCC-2998 colon; 37.9 µM with HOP-92 NSCLC; above 66.1 µM in the experiment on KM20L2 colon; 19.3 µM in the experiment on LOX IMVI melanoma. The TGI with MCF7 breast is above 100 µM; in the experiment on NCI-H460 lung, above 75.2 µM; in the experiment with SK-MEL-2 melanoma it was above 42.4 µM; in the experiment on SNB-75 CNS, 32.6 µM.

As for `C=CCNC(=O)ON1C(=O)CCC1=O`, the TGI in the experiment on DMS 273 small cell lung, with EKVX NSCLC, in the experiment on HCC-2998 colon, in the experiment on HOP-92 NSCLC, in the experiment on KM20L2 colon and in the experiment with LOX IMVI melanoma was above 100 µM each time. For the same compound, the TGI in the experiment on NCI-H460 lung, in the experiment on SK-MEL-2 melanoma and in the experiment on SNB-75 CNS was above 100 µM each time.

On to `C=C(c1ccccc1)[C@@]1(O)CCCC[C@H]1NC(c1ccccc1)c1ccccc1`, for which the TGI in the experiment on DMS 273 small cell lung was 27.1 µM; in the experiment on EKVX NSCLC it was 43.7 µM; in the experiment with HCC-2998 colon, 26.1 µM; with HOP-92 NSCLC, 26.1 µM; in the experiment on KM20L2 colon it was 43.5 µM; in the experiment with LOX IMVI melanoma it was 21.9 µM. Moreover, the TGI amounted to 28 µM with NCI-H460 lung, 27.4 µM with SK-MEL-2 melanoma and 63.6 µM in the experiment with SNB-75 CNS.
